Assay [1] relates to Mycobacterium tuberculosis CRY-8; CRY-13. Here is the method: (§1)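 Resazurin microtiter assay (REMA) MICs of anti-TB drugs against 19 EQA Mycobacterium tuberculosis strains (clinical or proficiency isolates plus H37Rv). Drugs were tested in doubling dilutions. Each value is the consensus of two measurements; where they disagreed the lower value was taken.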
The subject of assay [2] is Mycobacterium tuberculosis CRY-19. As to the method: as §1
Assay [3] concerns Mycobacterium tuberculosis CRY-27. Here is the method:
as §1

Assay [4] concerns Mycobacterium tuberculosis CRY-1; CRY-17. As to the method:
as §1

Assay [5] deals with Mycobacterium tuberculosis CRY-7; CRY-18. As to the method:
as §1

For assay [6], the system named is Mycobacterium tuberculosis CRY-20. As to the method: as §1
The test system of assay [7] is Mycobacterium tuberculosis CRY-5; CRY-10. As to the method:
as §1

In assay [8] the test system is Mycobacterium tuberculosis CRY-9; CRY-22. As to the method: as §1
Assay [9] deals with Mycobacterium tuberculosis CRY-26. Here is the method:
as §1

In assay [10] the test system is Mycobacterium tuberculosis CRY-4; CRY-30. Here is the method:
as §1

Assay [11] deals with Mycobacterium tuberculosis CRY-14. As to the method:
as §1

For assay [12], the system named is Mycobacterium tuberculosis CRY-3; CRY-11. Here is the method: as §1
The subject of assay [13] is Mycobacterium tuberculosis CRY-16. Here is the method:
as §1

The subject of assay [14] is Mycobacterium tuberculosis CRY-28. As to the method: as §1
Assay [15] concerns Mycobacterium tuberculosis CRY-2; CRY-25. As to the method: as §1
Assay [16] concerns Mycobacterium tuberculosis CRY-15; CRY-21. Here is the method: as §1
The test system of assay [17] is Mycobacterium tuberculosis CRY-23. As to the method: as §1
For assay [18], the system named is Mycobacterium tuberculosis CRY-6; CRY-29. As to the method:
as §1

Assay [19] has as its system Mycobacterium tuberculosis CRY-12; CRY-24. As to the method: as §1

SMILES strings stand for the structures. In brackets after ≈: the same amount, converted by molar mass.

Regarding `CO[C@H]1/C=C/O[C@@]2(C)Oc3c(C)c(O)c4c(c3C2=O)C2=NC3(CCN(CC(C)C)CC3)NC2=C(NC(=O)/C(C)=C\C=C\[C@H](C)[C@H](O)[C@@H](C)[C@@H](O)[C@@H](C)[C@H](OC(C)=O)[C@@H]1C)C4=O` [Rifabutin], the “MIC (REMA)” value is 2000 ng/mL (≈ 2360 nM) in assay [1]; ≤ 4 ng/mL in [2]; > 2000 ng/mL in assay [3]; > 2000 ng/mL in assay [4]; 2000 ng/mL (≈ 2360 nM) in [5]; ≤ 4 ng/mL in assay [6]. In addition, the “MIC (REMA)” value in assay [7] is 1000 ng/mL (≈ 1180 nM); in assay [8] it was ≤ 4 ng/mL; in [9], ≤ 4 ng/mL; in assay [10] it was ≤ 4 ng/mL; in assay [11], 125 ng/mL (≈ 148 nM); in [12], ≤ 4 ng/mL. In addition, the “MIC (REMA)” value in assay [13] is ≤ 4 ng/mL; in assay [14], 1000 ng/mL (≈ 1180 nM); in assay [15], ≤ 4 ng/mL; in assay [16], 8 ng/mL (≈ 9.44 nM); in assay [17], ≤ 4 ng/mL; in [18] it was ≤ 4 ng/mL. The “MIC (REMA)” value in [19] is ≤ 4 ng/mL.

Source of the values: the supplement of paper PMC6125532.
